Values of other authors as cited in patent US8881894B2, “Multiple-compartment applicator” (Sonovia Holdings LLC, priority 2008, dated 2014).

Details: in water

- pK of acid-ionizable hydrogen: 4.2
Structure (SMILES): O=C1O[C@H]([C@@H](O)CO)C(O)=C1O [L-Ascorbic acid]
